Assay results: paper PMC8639922, “KSHV transactivator-derived small peptide traps coactivators to attenuate MYC and inhibits leukemia and lymphoma cell growth” (Communications Biology, 2021)
Square brackets hold non-standard residues; d marks the D form. Peptide text beside a SMILES is read from it. Orn = NCCC[C@H](N)C(=O)O; βAla = NCCC(=O)O

Assays:
[1] = system: BCBL-1; test: Flow cytometry, apoptosis induction (Annexin V staining); format: cell-based, human; conditions: BCBL-1, 24 h, AnnexinV+ 7AAD-
Protocol: (§1) Leukoreduction system chambers (LRS) from healthy donors were purchased from Vitalant. Peripheral blood mononuclear cells (PBMCs) were prepared by a standard Ficoll gradient method. PBMCs along with THP-1 and BCBL-1 cell lines (2 × 10^6 cells/ml, 0.2 ml 10% FBS/RPMI/DMEM per well of a 96-well plate) were treated with various doses (0–256 μM) of either VGN50 peptide or control mutant peptide for 24 h. Cell death, apoptosis, and proliferation were analyzed by flow cytometry (BD Acuri) after intracellular staining with anti-humanKi67-Alexa488 (Biolegend, 1:100) along with the isotype control antibody, annexin-V-FITC with 7-AAD staining (Biolegend) according to the manufacture’s protocol, Live/dead Fixable Red Dead Cell staining kit (Invitrogen) according to the manufacture’s protocol, or MTT assay. Peptides were commercially synthesized (GenScript) with >90% purity with TFA removal.
(§2) AnnexinV+ 7AAD- % = apoptosis % […]
(§3) S-Figure 3. Flow cytometry analyses
(§4) (a) Apoptosis (%) was determined as Annexi nV+ 7AAD- popul at i on gat ed i n r ed shown i n
(§5) representative FACS plots of BCBL-1 cel l s t r eat ed wi t h PBS or VGN50 at 32µM. […]

[2] = system: BC-1; test: as above; format: cell-based, human; conditions: BC-1, 24 h, AnnexinV+ 7AAD-
Protocol: as §1, §2, §3, §4, §5

[3] = format: in vivo, BALB/c mice; conditions: BALB/c female, 10 mg/kg i.p., 5 day-on 2 day-off, two weeks, average n=5/group
Protocol: Based on strong and selective MYC down-regulation and cell killing activity of cancer cells in vitro, we next studied the therapeutic potential of VGN50 by examining the efficacy of cancer cell killing over toxicities to mice in a PEL xenograft model with BCBL-1 cells. Pilot studies determined that the peptide was well-tolerated in immunocompetent mice when administered as 10 mg/kg peptide via intraperitoneal (i.p.) injection with a 5-day-on 2-day-off schedule for 2 weeks, as shown by no notable changes in body weight, complete blood counts, and serum biochemical properties (Supplementary Fig. 5). Based on the drug schedule, we examined the effects of the peptide on xenograft PEL cell growth. In this established model, BCBL-1 cells grow in the peritoneal cavity resulting in the accumulation of ascites, which can be measured as a body weight gain that corresponds to the volume of ascites. We inoculated male NRG mice with 2 × 10^7 BCBL-1 cells via i.p. injection followed by injections of VGN50 (10 mg/kg), mutant control peptide or PBS, daily for 10 days starting from 2 days after (day 0) tumor inoculation. All mice in the control PBS-treated groups reached the humane endpoint by 10 days (Fig. 6a). […] At the termination point, tumor growth was also validated by flow cytometry analysis of PEL cells in ascites fluid (Fig. 6b, c). […] A similar phenotype is reported in MYC knock-out cardiac myocytes and keratinocytes[56],[57].
PBS VGN50 Mutant Normal ranges […]
Ext ended Dat a Fi gure 5. BALB/ c mi ce ( 8 weeks ol d, female, n=5/ gr oup) wer e i nj ect ed wi t h 10mg/ kg of VGN50 or mut ant pept i de i n 200 uL i.p. wi t h a 5 day-on 2 day off schedul e f or t wo week s . Body wei ght changes wer e measur ed dai l y ( a) . At t he end of t he exper i ment , f r esh bl ood and ser um col l ect ed wer e subj ect ed f or complet e blood count s and serum biochemical pr oper t i es, r espect i vel y ( b) .
(1 picture or pasted object on this page, not shown here)

SMILES: CC(C)C[C@H](NC(=O)CCNC(=O)[C@H](CCCNC(=N)N)NC(=O)[C@H](CCCNC(=N)N)NC(=O)[C@H](CCCNC(=N)N)NC(=O)[C@H](CCCN)NC(=O)[C@H](CCCNC(=N)N)NC(=O)[C@H](CCCNC(=N)N)NC(=O)[C@H](CCCCN)NC(=O)[C@H](CCCCN)NC(=O)[C@H](N)CCCNC(=N)N)C(=O)N[C@@H](CO)C(=O)N[C@@H](CO)C(=O)N[C@@H](C)C(=O)N[C@@H](C)C(=O)N[C@@H](C)C(=O)NCC(=O)N[C@@H](CC(C)C)C(=O)N[C@@H](Cc1ccc(O)cc1)C(=O)N[C@@H](CCC(N)=O)C(=O)N[C@@H](CC(C)C)C(=O)N[C@@H](CC(=O)O)C(=O)N[C@H](C(=O)O)[C@@H](C)O [Mt-P] (H-[dR]KKRR[Orn]RRR[βAla]LSSAAAGLYQLDT-OH; N-terminus and C-terminus assumed)
- AnnexinV+% ([1]; replicate 1): 3.66%
- AnnexinV+% ([1]; replicate 2): 5.9%
- AnnexinV+% ([1]; replicate 3): 4.52%
- AnnexinV+% ([2]; replicate 1): 4.73%
- AnnexinV+% ([2]; replicate 2): 4.24%
- AnnexinV+% ([2]; replicate 3): 4.01%
- Absolute Basophil cells ([3]; normal 0.0-0.1): 0.06 K/ul
- Absolute Eosinophil cells ([3]; normal 0.0-0.1): 0.14 K/ul
- Total Bilirubin ([3]; normal 0.0-0.2): 0.05 mg/dL
- Creatinine ([3]; normal 0.0-0.3): 0.20 mg/dL
- Basophil % ([3]; normal 0.0-0.5): 0.70%
- Eosinophil % ([3]; normal 0.0-0.8): 2.14%
- Alanine Transaminase ([3]; normal 0-403): 82.85 U/L
- Aspartate Transaminase ([3]; normal 0-552): 651.13 U/L
- Absolute Monocyte cells ([3]; normal 0.2-1.0): 0.43 K/ul
- Absolute Neutrophil cells ([3]; normal 1.0-3.7): 1.12 K/ul
- Monocyte % ([3]; normal 2.5-7.5): 5.52%
- Albumin ([3]; normal 2.9-4.0): 3.67 g/dL
- Absolute Lymphocyte cells ([3]; normal 4.3-10.6): 2.54 K/ul
- Total Protein ([3]; normal 4.7-6.1): 4.81 g/dL
- MPV ([3]; normal 5.0-20.0): 3.05 fL
- WBC ([3]; normal 5.1-14.7): 4.22 K/ul
- Potassium ([3]; normal 6.9-10.0): 6.90 mmol/L
- Phosphorus ([3]; normal 7.5-10.7): 7.46 mg/dL
- Calcium ([3]; normal 9.6-11-5): 9.39 mg/dL
- Hemoglobin ([3]; normal 11.7-16.2): 7.07 g/dL
- RDW % ([3]; normal 12.4-27.0): 10.08%
- Neutrophil % ([3]; normal 12.5-31.2): 16.70%
- MCH ([3]; normal 13.3-16.7): 7.62 pg
- Blood Urea Nitrogen ([3]; normal 15.2-34.7): 20.03 mg/dL
- MCHC ([3]; normal 27.6-32.9): 13.18 g/dL
- Hematocrit % ([3]; normal 38.3-54.0): 27.72%
- MCV ([3]; normal 45.3-53.6): 29.04 fL
- Alkaline Phosphatase ([3]; normal 49-172): 129.20 U/L
- Lymphocyte % ([3]; normal 62.9-82.7): 31.21%
- Chloride ([3]; normal 105-118): 112.13 mmol/L
- Glucose ([3]; normal 130-254): 194.73 mg/dL
- Sodium ([3]; normal 150-160): 145.25 mmol/L
- Platelets ([3]; normal 574-1079): 333.29 K/uL
- Amylase ([3]; normal 2463-6660): 1624.05 U/L
